This note sets out measurements from ChEMBL document CHEMBL1132809, “Synthesis and evaluation of 4-deacetoxyagosterol A as an MDR-modulator” (2000).

Assay [1] deals with KB 3-1. The assay can be described thus: Cytotoxicity was evaluated against KB CV-60 cells at 0.1 ug/mL; No cytotoxicity. The format is functional, cell-based. The settings on record: Homo sapiens.
Assay [2] deals with KB 3-1. The assay can be described thus: Cytotoxicity was evaluated against KB-C2 cells at 0.1 ug/mL; No cytotoxicity. The format is functional, cell-based. The note with it: Homo sapiens.
The subject of assay [3] is KB 3-1. The assay can be described thus: Cytotoxicity was evaluated against KB-3-1 cells at 10 ug/mL. In kind it is functional. The settings on record: Homo sapiens.
For assay [4], the system named is KB-C2. The assay can be described thus: The compound was evaluated to Inhibit the growth of KB-C2 cells at 1 ug/mL n the presence of colchicine (0.1 ug/ML).
Assay [5] relates to KB-C2. The assay can be described thus: The compound was evaluated to Inhibit the growth of KB-C2 cells at 3 ug/mL n the presence of colchicine (0.1 ug/ML).
Assay [6] concerns KB-C2. The assay can be described thus: The compound was evaluated to Inhibit the growth of KB-C2 cells at 10 ug/mL in the presence of colchicine (0.1 ug/ML).
Assay [7] deals with KB-CV60. The assay can be described thus: The compound was evaluated to Inhibit the growth of KB CV-60 cells at 1 ug/mL in the presence of vincristine (0.1 ug/ML).
Assay [8] concerns KB-CV60. The assay can be described thus: The compound was evaluated to Inhibit the growth of KB CV-60 cells at 3 ug/mL in the presence of vincristine (0.1 ug/ML).
Assay [9] has as its system KB-CV60. The assay can be described thus: The compound was evaluated to Inhibit the growth of KB CV-60 cells at 10 ug/mL in the presence of vincristine (0.1 ug/ML).
The test system of assay [10] is KB 3-1. The assay can be described thus: Cytotoxicity was evaluated against KB-3-1 cells at 3 ug/mL. The format is functional. The settings on record: Homo sapiens.

SMILES strings stand for the structures.

As for `CC[C@]1(O)C[C@H]2CN(CCc3c([nH]c4ccccc34)[C@@](C(=O)OC)(c3cc4c(cc3OC)N(C=O)[C@H]3[C@@](O)(C(=O)OC)[C@H](OC(C)=O)[C@]5(CC)C=CCN6CC[C@]43[C@@H]65)C2)C1`, the Cytotoxicity entry in the assay on KB 3-1 [1] and in the assay with KB 3-1 [2] was “No cytotoxicity” throughout.

As a reminder, the inhibition is the relative decrease from the control value, in per cent. Read a high inhibition as a response far below the control. The term Inhibition denotes the percentage by which the read-out fell short of the control. In the assay with KB 3-1 [3], `CC(=O)O[C@@H]1[C@@H]2[C@@H](OC(C)=O)C=C3[C@H]([C@H](O)C[C@]4(C)[C@@H]([C@H](C)[C@H](O)CCC(C)C)CC[C@@H]34)[C@@]2(C)CC[C@@H]1OC(C)=O` [AGOSTEROL A] registered an inhibition at 10 µg/mL of 13%. Also, the Inhibition is reported as 75% in the assay on KB-C2 [4]; 82% in the assay on KB-C2 [5]; 84% with KB-C2 [6]; 66% in the assay with KB-CV60 [7]; 73% in the assay on KB-CV60 [8]; 76% in the assay on KB-CV60 [9].

In the assay with KB 3-1 [3], `CC(=O)O[C@H]1CC[C@@]2(C)[C@H](C1)[C@@H](OC(C)=O)C=C1[C@@H]2[C@H](O)C[C@]2(C)[C@@H]([C@H](C)[C@H](O)CCC(C)C)CC[C@@H]12` showed an inhibition at 10 µg/mL of 19%. This compound also gave an inhibition at 3 µg/mL with KB 3-1 [10] of 13%. Besides, the Inhibition in the assay on KB-C2 [4] is 44%; in the assay on KB-C2 [5], 76%; in the assay on KB-C2 [6] it was 87%; with KB-CV60 [7], 59%; in the assay on KB-CV60 [8], 64%; in the assay with KB-CV60 [9], 69%.

Consider `COc1cc2c(c(OC)c1OC)-c1ccc(OC)c(=O)cc1[C@@H](NC(C)=O)CC2`, for which the Cytotoxicity result in the assay on KB 3-1 [1] and in the assay with KB 3-1 [2] was “No cytotoxicity” throughout.

In the assay with KB 3-1 [3], `CC(=O)O[C@H]1CC[C@@]2(C)[C@H](C1)[C@@H](OC(C)=O)C=C1[C@@H]2[C@H](O)C[C@]2(C)[C@@H]([C@H](C)CCCC(C)C)CC[C@@H]12` showed an inhibition at 10 µg/mL of 39%. The same compound displayed an inhibition at 3 µg/mL in the assay with KB 3-1 [10] of 5%. Moreover, the Inhibition in the assay with KB-C2 [4] is recorded as 37%; in the assay on KB-C2 [5], 69%; in the assay with KB-C2 [6], 88%; with KB-CV60 [7], 15%; in the assay with KB-CV60 [8], 25%; in the assay with KB-CV60 [9] it was 42%.
